This is an account of results in patent US12286435B2, “Compound having benzo seven-membered ring structure, preparation method therefor, and use thereof” (BIONNA (BEIJING) MEDICAL TECHNOLOGY CO., LTD., priority 2019, dated 2025).

In experiment [1] the test system is multiple myeloma MM.1S cell line. The experiment is described as follows: Cell viability (CCK-8), multiple myeloma MM.1S. It counts as cell-based. The settings on record: Homo sapiens, MM1.S, 96 h, MM.1S cells, 4 days, CCK-8, 50% inhibition of cell growth. The procedure:
3. Determination of cell viability of the compound
The sample to be tested was dissolved with 100% dimethyl sulfoxide to prepare a 20 mM stock solution of the compound, which was diluted with 100% dimethyl sulfoxide to the highest compound concentration required for the experiment (2.5 mM).
First, 145 uL of a complete cell culture medium was added to wells B1-G1 of a 96-well flat-bottomed tansparent cell culture plate, and 100 uL of the complete medium was added to wells B2-G12, respectively. Then, 5 uL of the 2.5 mM solution of the compound was added to wells B1-D1 and E1-G1 respectively, and then diluted gradiently by 3-folds to B12-D12 and E12-G12 in sequence. Finally, 50 uL of the solution of the cells to be tested was added to each well, with about 3000-5000 cells per well, and a total volume of 150 uL per well.
In the experiment, in addition to the tested compound, two other control groups were set up: 1) a control group adding the cells and the complete medium, but without adding the compound; 2) a control group adding the complete medium only, without adding the cells and the compound. The 96-well plate was placed in a 37° C. cell culture incubator containing 5% carbon dioxide for 4 days, added with 15 uL of a CCK-8 reagent per well, and then incubated at 37° C. for 2-4 hours. The 96-well plate was read on a TECAN microplate reader, and the absorbance value at 450 nm wavelength was taken.
The effect of different concentrations of the compound on cell viability was calculated by the following equation: [absorption value of the experimental group−absorption value of pure cell culture medium without the cells or the compound]/[absorption value of the control group with the tumor cells but no testing compound−absorption value of pure cell culture medium without the cell or the compound]×100%.
The above data were precessed by software, and the IC50 value was the concentration of the compound corresponding to the 50% inhibition rate of cell growth.
Based on the above test method of the compound on cell viability, a variety of […] cancer cell lines were tested, using multiple myeloma MM.1S, breast cancer MDA-MB-231 and leukemia MV4-11 cell lines as exemples. Using this test method, the IC50 values of partial compounds in the examples of the present invention measured in multiple myeloma MM.1S, breast cancer MDA-MB-231 cell lines and leukemia MV4-11 cell lines were shown in Table 2.

For the next experiment, the target named is BRD4 BD2 protein (Homo sapiens (Human), UniProt O60885). The experiment is described as follows: Fluorescence polarization binding affinity (Ki) with BRD4 BD2 protein.
A further experiment deals with BRD4 BD1 protein (Homo sapiens (Human), UniProt O60885). As to the kind of experiment: Fluorescence polarization binding affinity (Ki) with BRD4 BD1 protein.
[2] abbreviates: fluorescence polarization, Ki calculated from IC50.

Several values for one entry are separate records, joined by “and”; a condition that tells them apart may be missing. Equal entries are not always repeated. Where two headings read alike, the source gives them in different places.

In turn, `COC(=O)Cc1ccc(NC2CCn3nnc(C)c3-c3ccc(-c4cnn(C)c4)cc32)cc1` (stereo not shown) [LB38, methyl 2-(4-((1-methyl-9-(1-methyl-1H-pyrazol-4-yl)-6,7-dihydro-5H-benzo[c][1,2,3]triazolo[1,5-a]azepin-7-yl)amino)phenyl)acetate] showed an IC50 in experiment [1] of 32.9 nM. In the case of `Cc1nnn2c1-c1ccc(C3=CCN(C)CC3)cc1C(Nc1ccccc1Cl)CC2` (stereo not shown) [RD06, N-(2-chlorophenyl)-1-methyl-9-(1-methyl-1,2,3,6-tetrahydropyridin-4-yl)-6,7-dihydro-5H-benzo[c][1,2,3]triazolo[1,5-a]azepin-7-amine 2,2,2-trifluoroacetate], the Ki was 56.4 nM at BRD4 BD2 protein (setting [2]) and 1030 nM at BRD4 BD1 protein (setting [2]). For the compound `Cc1nnn2c1-c1ccc(C3=CCNCC3)cc1C(Nc1cccc(CO)c1)CC2` (stereo not shown) [RD21, (3-((1-methyl-9-(1,2,3,6-tetrahydropyridin-4-yl)-6,7-dihydro-5H-benzo[c][1,2,3]triazolo[1,5-a]azepin-7-yl)amino)phenyl)methanol 2,2,2-trifluoroacetate], the Ki at BRD4 BD2 protein (setting [2]) was 90.4 nM; at BRD4 BD1 protein (setting [2]), 1530 nM. Regarding `Cc1nnn2c1-c1ccc(C3=CCN(C)CC3)cc1C(Nc1ccc(CO)cc1)CC2` (stereo not shown) [RD41, (4-((1-methyl-9-(1-methyl-1,2,3,6-tetrahydropyridin-4-yl)-6,7-dihydro-5H-benzo[c][1,2,3]triazolo[1,5-a]azepin-7-yl)amino)pheny 1)methanol 2,2,2-trifluoroacetate], the inhibition constant Ki on BRD4 BD2 protein (setting [2]) is 55.1 nM; on BRD4 BD1 protein (setting [2]), 1550 nM. Turning to `CCN1CC=C(c2ccc3c(c2)C(Nc2cccc(Cl)c2F)CCn2nnc(C)c2-3)CC1` (stereo not shown) [RD115, N-(3-chloro-2-fluorophenyl)-9-(1-ethyl-1,2,3,6-tetrahydropyridin-4-yl)-1-methyl-6,7-dihydro-5H-benzo[c][1,2,3]triazolo[1,5-a]azepin-7-amine 2,2,2-trifluoroacetate], the figures for the Ki at BRD4 BD2 protein (setting [2]) and on BRD4 BD1 protein (setting [2]) were 59.1 nM and 1130 nM, respectively. Turning to `CCN1CC=C(c2ccc3c(c2)C(Nc2ccc(F)c(Cl)c2)CCn2nnc(C)c2-3)CC1` (stereo not shown) [RD121, N-(3-chloro-4-fluorophenyl)-9-(1-ethyl-1,2,3,6-tetrahydropyridin-4-yl)-1-methyl-6,7-dihydro-5H-benzo[c][1,2,3]triazolo[1,5-a]azepin-7-amine 2,2,2-trifluoroacetate], the Ki on BRD4 BD2 protein was determined as 31.8 nM; on BRD4 BD1 protein, 788 nM.

Turning to `CCN1CC=C(c2ccc3c(c2)C(Nc2cc(Cl)ccc2F)CCn2nnc(C)c2-3)CC1` (stereo not shown) [RD123, N-(5-chloro-2-fluorophenyl)-9-(1-ethyl-1,2,3,6-tetrahydropyridin-4-yl)-1-methyl-6,7-dihydro-5H-benzo[c][1,2,3]triazolo[1,5-a]azepin-7-amine 2,2,2-trifluoroacetate], the Ki on BRD4 BD2 protein came to 40.8 nM; on BRD4 BD1 protein it was 1090 nM.

Regarding `CCN1CCC(c2ccc3c(c2)C(Nc2cccc(Cl)c2)CCn2nnc(C)c2-3)CC1` (stereo not shown) [RD142, N-(3-chlorophenyl)-9-(1-ethylpiperidin-4-yl)-1-methyl-6,7-dihydro-5H-benzo[c][1,2,3]triazolo[1,5-a]azepin-7-amine 2,2,2-trifluoroacetate], the Ki on BRD4 BD2 protein (setting [2]) is 193 nM; at BRD4 BD1 protein (setting [2]), 4410 nM. Consider `Cc1nnn2c1-c1ccc(C3=CCN(C4CCCCC4)CC3)cc1C(Nc1cccc(Cl)c1F)CC2` (stereo not shown) [RD178, N-(3-chloro-2-fluorophenyl)-9-(1-cyclohexyl-1,2,3,6-tetrahydropyridin-4-yl)-1-methyl-6,7-dihydro-5H-benzo[c][1,2,3]triazolo[1,5-a]azepin-7-amine 2,2,2-trifluoroacetate], for which the Ki was 32.7 nM at BRD4 BD2 protein and 1260 nM at BRD4 BD1 protein. On to `Cc1nnn2c1-c1ccc(C3=CCN(C4CCCC4)CC3)cc1C(Nc1cccc(Cl)c1F)CC2` (stereo not shown) [RD179, N-(3-chloro-2-fluorophenyl)-9-(1-cyclopentyl-1,2,3,6-tetrahydropyridin-4-yl)-1-methyl-6,7-dihydro-5H-benzo[c][1,2,3]triazolol[1,5-a]azepin-7-amine 2,2,2-trifluoroacetate], for which the Ki was 32.6 nM on BRD4 BD2 protein (setting [2]) and 2810 nM on BRD4 BD1 protein (setting [2]). In the case of `CC(=O)N1CC=C(c2ccc3c(c2)C(Nc2cccc(Cl)c2F)CCn2nnc(C)c2-3)CC1` (stereo not shown) [RD180, 1-(4-(7-((3-chloro-2-fluoro-phenyl)amino)-1-methyl-6,7-dihydro-5H-benzo[c][1,2,3]triazolo[1,5-a]azepin-9-yl)-3,6-dihydropyridin-1 (2H)-yl)ethan-1-one], the Ki at BRD4 BD2 protein (setting [2]) was 12.1 nM; on BRD4 BD1 protein (setting [2]), 52 nM. As to `Cc1nnn2c1-c1ccc(C3=CCN(C(C)C)CC3)cc1[C@@H](Nc1cccc(Cl)c1)CC2` [RE10 (S), (7S)—N-(3-chlorophenyl)-9-(1-isopropyl-1,2,3,6-tetrahydropyridin-4-yl)-1-methyl-6,7-dihydro-5H-benzo[c][1,2,3]triazolo[1,5-a]azepin-7-amine 2,2,2-trifluoroacetate], the figures for the Ki at BRD4 BD2 protein (setting [2]) and at BRD4 BD1 protein (setting [2]) were 177 nM and 884 nM, respectively. The corresponding values for `Cc1nnn2c1-c1ccc(C3=CCN(C(C)C)CC3)cc1C(Nc1cccc(Cl)c1F)CC2` (stereo not shown) [RE29, N-(3-chloro-2-fluorophenyl)-9-(1-isopropyl-1,2,3,6-tetrahydropyridin-4-yl)-1-methyl-6,7-dihydro-5H-benzo[c][1,2,3]triazolo[1,5-a]azepin-7-amine 2,2,2-trifluoroacetate] are 65.8 nM and 1550 nM. With `Cc1nnn2c1-c1ccc(C3=CCN(C4CCC4)CC3)cc1C(Nc1cccc(Cl)c1F)CC2` (stereo not shown) [RE30, N-(3-chloro-2-fluorophenyl)-9-(1-cyclobutyl-1,2,3,6-tetrahydropyridin-4-yl)-1-methyl-6,7-dihydro-5H-benzo[c][1,2,3]triazolo[1,5-a]azepin-7-amine 2,2,2-trifluoroacetate], the inhibitory constant (Ki) on BRD4 BD2 protein stood at 30.2 nM; at BRD4 BD1 protein, 413 nM. `Cc1nnn2c1-c1ccc(-c3cnn(C)c3)cc1[C@H](Nc1cccc(Cl)c1)CC2` [RE124, (R)—N-(3-chlorophenyl)-1-methyl-9-(1-methyl-1H-pyrazol-4-yl)-6,7-dihydro-5H-benzo[c][1,2,3]triazolo[1,5-a]azepin-7-amine]: the Ki was less than 1 nM on BRD4 BD2 protein (setting [2]) and 9.92 ± 3.36 nM at BRD4 BD1 protein (setting [2]). In the case of `Cc1nnn2c1-c1ccc(-c3cnn(C)c3)cc1[C@H](Nc1ccc(Cl)cc1)CC2` [RE127, (R)—N-(4-chlorophenyl)-1-methyl-9-(1-methyl-1H-pyrazo1-4-yl)-6,7-dihydro-5H-benzo[c][1,2,3]triazolo[1,5-a]azepin-7-amine], the Ki is less than 1 nM at BRD4 BD2 protein (setting [2]) and 4.15 ± 0.21 nM on BRD4 BD1 protein (setting [2]). The corresponding values for `CCn1cc(-c2ccc3c(c2)[C@H](Nc2ccc(Cl)cc2)CCn2nnc(C)c2-3)cn1` [RE136, (R)—N-(4-chlorophenyl)-9-(1-ethyl-1H-pyrazol-4-yl)-1-methyl-6,7-dihydro-5H-benzo[c][1,2,3]triazolo[1,5-a]azepin-7-amine] are less than 1 nM and 2.66 ± 0.37 nM. Regarding `Cc1nnn2c1-c1ccc(C3=CCNCC3)cc1C(Nc1cccc3[nH]ccc13)CC2` (stereo not shown) [WA78, 2,2,2-trifluoroacetate], the Ki was 19.8 nM on BRD4 BD2 protein (setting [2]) and 281 nM at BRD4 BD1 protein (setting [2]).

On to `Cc1nnn2c1-c1ccc(C3=CCNCC3)cc1C(Nc1ccc3[nH]ccc3c1)CC2` (stereo not shown) [WA82, N-(1H-indo1-5-yl)-1-methyl-9-(1,2,3,6-tetrahydropyridin-4-yl)-6,7-dihydro-5H-benzo[c][1,2,3]triazolo[1,5-a]azepin-7-amine 2,2,2-trifluoroacetate], for which the Ki on BRD4 BD2 protein (setting [2]) was 53.6 nM; at BRD4 BD1 protein (setting [2]) it was 436 nM. With `Cc1nnn2c1-c1ccc(C3=CCNCC3)cc1C(Nc1ccc3cc[nH]c3c1)CC2` (stereo not shown) [WA83, N-(1H-indo1-6-yl)-1-methyl-9-(1,2,3,6-tetrahydropyridin-4-yl)-6,7-dihydro-5H-benzo[c][1,2,3]triazolo[1,5-a]azepin-7-amine 2,2,2-trifluoroacetate], the Ki at BRD4 BD2 protein (setting [2]) was 88.6 nM; at BRD4 BD1 protein (setting [2]), 431 nM.

For `Cc1nnn2c1-c1ccc(C3=CCN(C4CCCC4)CC3)cc1C(Nc1ccc(F)c(Cl)c1)CC2` (stereo not shown) [WYA10, N-(3-chloro-4-fluorophenyl)-9-(1-cyclopentyl-1,2,3,6-tetrahydropyridin-4-yl)-1-methyl-6,7-dihydro-5H-benzo[c][1,2,3]triazolo[1,5-a]azepin-7-amine 2,2,2-trifluoroacetate], the Ki was 20.7 nM and 47.4 nM at BRD4 BD2 protein (setting [2]); 719 nM at BRD4 BD1 protein (setting [2]). For the compound “N-(4-chlorophenyl)-9-(3,6-dihydro-2H-pyran-4-yl)-1-methyl-6,7-dihydro-5H-benzo[c][1,2,3]triazolo[1,5-a]azepin-7-amine [LD31]”, the Ki on BRD4 BD2 protein stood at 17.1 nM; at BRD4 BD1 protein, 39.1 nM.
